According to US11440903B2, “Salt form and crystal form of compound as FGFR4 inhibitor and preparation method thereof” (GUANGDONG ZHONGSHENG PHARMACEUTICAL CO., LTD, priority 2017, dated 2022):
Like-named read-outs stand apart in the source and are kept apart here.

Assay: Solubility test in biological media (FaSSIF, FeSSIF, SGF) and water, 37° C.
Type: physicochemical
Conditions: for Status (24 h) / solubility at 24 h / pH 24 hours: 37° C.; for Status (24 h): about 4 mg in 2 mL; for solubility at 24 h: salt forms converted to salt concentrations, read-out: Solubility (mg/mL) 24 hours; for pH 24 hours: supernatant; for pH 0 hour: initial
Description: Step 1: Preparation of Control Solutions (0.2 mg/mL, calculated by free base)
2 mg the crystal form B of the compound represented by formula (I) (or 2.4 mg the crystal form E of the compound represented by formula (II)) as a control was precisely weighed and placed into a 40 mL glass vial, and a diluent (10 mL) was precisely added. The reaction solution was subjected to ultrasonic treatment for 20 min to sufficiently dissolve, then cooled to room temperature and shaked well. Two control solutions (STD #1, STD #2) were formulated in accordance with this method.
Step 2: Preparation of Linear Solutions
The control solution STD #1 of the crystal form B of the compound represented by formula (I) was 1×, 10×, 100×, 1000× and 2000× (free base LOQ) diluted, and designated as the linear solutions L1, L2, L3, L4 and L5; the control solution STD #1 of the crystal form E of the compound represented by formula (II) was 1×, 10×, 100× and 1000× (methanesulfonate LOQ) diluted, and designated as the linear solutions L1, L2, L3, L4.
Step 3: Solubility Test of the crystal form B of the compound represented by formula (I), the crystal form G of the compound represented by formula (III) and the crystal form E of the compound represented by formula (II) in biological media and water
4 samples (about 4 mg) of each of the crystal form B of the compound represented by formula (I), the crystal form E of the compound represented by formula (II), and the crystal form G of the compound represented by formula (III) were added into 12 glass vials (4 mL), respectively, and then 2 mL different biological media (FaSSIF, FeSSIF, SGF) and water were added into each compound respectively, then mixed homogeneously to form a suspension. The suspension was detected for its initial pH value. A magnet was added into the suspension, and placed on a magnetic stirring heater for stirring (at a temperature of 37° C., in dark). After stirring for 24 h, a sample was taken. The taken sample was quickly centrifuged, and the residual solid was detected by XRPD. The supernatant was detected for its pH value and diluted with a diluent into appropriate multiple, then measured with HPLC for its concentration.
FaSSIF: 1. 0.042 g sodium hydroxide, 0.3438 g sodium dihydrogen phosphate and 0.6186 g sodium chloride were weighed, added into 90 mL purified water, and homogeneously mixed, then, the mixture was adjusted with 1 N hydrochloric acid or 1 N sodium hydroxide to pH=6.5, and diluted into a constant volume of 100 mL with purified water; 2. 50 mL of the buffer described above was taken, and 0.224 g commercially available powder (Biorelevant.com) of FaSSIF/FeSSIF/FaSSGF was added thereto, the mixture was stirred to dissolve, and diluted with purified water to a constant volume of 100 mL.
FeSSIF: 1. 0.404 g sodium hydroxide, 0.865 g glacial acetic acid, and 1.1874 g sodium chloride were weighed, added into 90 mL purified water, and homogeneously mixed, then, the mixture was adjusted with 1 N hydrochloric acid or 1 N sodium hydroxide to pH=5.0, and diluted with purified water to a constant volume of 100 mL, 2. 50 mL of the buffer described above was taken, and 1.12 g commercially available powder (Biorelevant.com) of FaSSIF/FeSSIF/FaSSGF was added thereto, the mixture was stirred to dissolve, and diluted with purified water to a constant volume of 100 mL.
FaSSGF (SGF): 1. 0.2 g sodium chloride was weighed, added into 90 mL purified water, and mixed homogeneously, the mixture was adjusted with 1 N hydrochloric acid to pH=1.8, and diluted with purified water to a constant volume of 100 mL, and stood at room temperature.

[1] = SGF (FaSSGF), pH 1.8, simulated gastric fluid, thermodynamic from solid, SGF
[2] = pH 5, thermodynamic from solid, FeSSIF
[3] = pH 6.5, thermodynamic from solid, FaSSIF
[4] = thermodynamic from solid, Water

## C=CC(=O)N[C@H]1COC[C@H]1Nc1ncc(/C=C(\F)c2c(Cl)c(OC)cc(OC)c2Cl)cn1 [Crystal Form B]
FaSSIF
  Status (24 h): Suspension
  pH 24 hours: 7.10
FaSSIF, FeSSIF, SGF
  solubility in three types of biological media, conclusion in words: good solubility
FeSSIF
  Status (24 h): Suspension
  pH 24 hours: 5.18
[1]
  solubility at 24 h: 0.014 mg/mL
SGF
  Status (24 h): Suspension
  pH 24 hours: 2.48
Water
  Status (24 h): Suspension
  pH 24 hours: 7.30
[2]
  solubility at 24 h: 0.284 mg/mL
[3]
  solubility at 24 h: 0.041 mg/mL
Suspension in FaSSIF
  pH 0 hour: 7.04
Suspension in FeSSIF
  pH 0 hour: 4.98
Suspension in SGF
  pH 0 hour: 2.21
Suspension in Water
  pH 0 hour: 8.34
[4]
  solubility at 24 h: 0.007 mg/mL

## C=CC(=O)N[C@H]1COC[C@H]1Nc1ncc(/C=C(\F)c2c(Cl)c(OC)cc(OC)c2Cl)cn1.CS(=O)(=O)O [Crystal Form E]
FaSSIF
  Status (24 h): Suspension
  pH 24 hours: 6.81
FaSSIF, FeSSIF, SGF
  solubility in three types of biological media, conclusion in words: good solubility
FeSSIF
  Status (24 h): Suspension
  pH 24 hours: 5.11
[1]
  solubility at 24 h: 0.041 mg/mL
SGF
  Status (24 h): Suspension
  pH 24 hours: 2.31
Water
  Status (24 h): Suspension
  pH 24 hours: 2.74
[2]
  solubility at 24 h: 0.358 mg/mL
[3]
  solubility at 24 h: 0.036 mg/mL
Suspension in FaSSIF
  pH 0 hour: 6.97
Suspension in FeSSIF
  pH 0 hour: 4.92
Suspension in SGF
  pH 0 hour: 2.17
Suspension in Water
  pH 0 hour: 3.50
[4]
  solubility at 24 h: 0.1 mg/mL
